According to patent publication US20240245793A1, “PSD-95 INHIBITORS AND USES THEREOF” (priority 2021, published 2024):
Like-named read-outs stand apart in the source and are kept apart here.

Tested on: HeLa cells stably expressing HaloGFP
Assay: Chloroalkane penetration assay (CAPA), membrane permeability and cellular uptake
Type: cell-based
Excerpt: Since PSD-95 is located intracellularly, it is essential for any drug targeting PSD-95 to efficiently cross the cell membrane. To assess the cellular permeability and delivery to the cytosol of the compounds as defined herein, the cellular chloroalkane penetration assay (CAPA) may be used (Peraro et al. 2018). This assay takes advantage of a modified haloalkane dehalogenase designed to covalently bind chloroalkane (CA) molecules. A HeLa cell line expressing a fusion protein comprising a HaloTag, a green fluorescent protein (GFP) and a mitochondria-targeting peptide is used to report cytosolic delivery. The general format of the CAPA is a pulse-chase assay (Deprey & Kritzer, 2020). Cells expressing the HaloTag enzyme are incubated with CA-tagged peptides. When these CA-peptides penetrate the cell membrane and reach the cytosol, they will bind to and react with the HaloTag (pulse step). Following a washing step, the cells are incubated with a CA-tagged dye that quantitatively penetrates the cell membrane and reacts with remaining unreacted HaloTag sites (chase step). Flow cytometry is used to measure the fluorescence intensity of the cells and the measured fluorescence is inversely proportional to the amount of CA-peptides that reach the penetrated the cells and can thus be used to assess cytosolic delivery. The obtained data is commonly expressed as CP50 values, the concentration at which 50% cell penetration is observed. The CP50 value of a compound may be measured as described in example 4.
The membrane permeability of compounds 10 to 75 was determined in HeLa cells stably expressing HaloGFP exclusively located in the cytosol. Cells were seeded at a density of 40.000 cells/well one day prior to the experiment. After the growth media was aspirated and replaced by 100 μL of Opti-MEM, 25 μL of a prepared serial dilution of the ligand in Opti-MEM was added to the cells (constant DMSO concentration), and the plate was incubated for 4 h at 37° C. and 5% CO2. The contents of the wells were aspirated, and cells were washed with fresh Opti-MEM for 15 min. After aspiration of the wash, the cells were incubated with TAMRA-CA (5 μM) for 15 min. After aspiration of the chase solution, cells were washed with Opti-MEM for 30 min. Following removal of the wash, cells were trypsinized, resuspended in PBS (2% FBS), and analyzed using a benchtop flow cytometer. Using no ligand and no TAMRA-CA control well, the obtained fluorescence intensity data was normalized and plotted as dose-response curves. Reported CP50 values represent half-maximum red fluorescence which behaves inverse to cell penetration of the ligand.

[1] = CA-tagged ligands, 4 h at 37° C., L-TAT and L-Arg9, mean ± SEM (Table 10, FIG. 7)

CP50 [µM] | Compound | also measured
3.7 ± 0.3 | CC[C@H](C)[C@H](NC(=O)CCOCCOCCN(CCOCCOCCC(=O)N[C@H](C(=O)N[C@@H](CCC(=O)O)C(=O)N[C@H](C(=O)N[C@@H](CC(=O)O)C(=O)N[C@H](C(=O)O)C(C)C)[C@@H](C)O)[C@@H](C)CC)C(=O)[C@H](C)NC(=O)[C@H](CC(C)C)NC(=O)[C@H](CCCCN)NC(=O)[C@H](CC(C)C)NC(=O)[C@H](C)NC(=O)[C@H](C)NC(=O)[C@H](CCCCN)NC(=O)[C@H](CC(C)C)NC(=O)[C@H](C)NC(=O)[C@H](CCCCN)NC(=O)[C@H](CC(C)C)NC(=O)[C@H](C)NC(=O)[C@H](CC(C)C)NC(=O)[C@H](CCCCN)NC(=O)[C@H](CC(C)C)NC(=O)[C@H](C)NC(=O)[C@H](CC(C)C)NC(=O)[C@H](CCCCN)NC(=O)CCC(=O)NCCOCCOCCCCCCCl)C(=O)N[C@@H](CCC(=O)O)C(=O)N[C@H](C(=O)N[C@@H](CC(=O)O)C(=O)N[C@H](C(=O)O)C(C)C)[C@@H](C)O [Compound 55] | 
7.36 ± 0.31 | CC(C)C[C@H](NC(=O)[C@@H](NC(=O)[C@H](CCC(=O)O)NC(=O)[C@H](CCCCN)NC(=O)CCOCCOCCN(CCOCCOCCC(=O)N[C@@H](CCCCN)C(=O)N[C@@H](CCC(=O)O)C(=O)N[C@H](C(=O)N[C@@H](CC(C)C)C(=O)N[C@H](C(=O)O)C(C)C)[C@@H](C)O)C(=O)[C@H](CCCNC(=N)N)NC(=O)[C@H](CCCNC(=N)N)NC(=O)[C@H](CCCNC(=N)N)NC(=O)CCC(=O)NCCOCCOCCCCCCCl)[C@@H](C)O)C(=O)N[C@H](C(=O)O)C(C)C [Compound 75] | 
0.37 ± 0.08 | CC(C)C[C@H](NC(=O)[C@@H](NC(=O)[C@H](CCC(=O)O)NC(=O)[C@H](CCCCN)NC(=O)CCOCCOCCN(CCOCCOCCC(=O)N[C@@H](CCCCN)C(=O)N[C@@H](CCC(=O)O)C(=O)N[C@H](C(=O)N[C@@H](CC(C)C)C(=O)N[C@H](C(=O)O)C(C)C)[C@@H](C)O)C(=O)[C@H](CCCNC(=N)N)NC(=O)[C@H](CCCNC(=N)N)NC(=O)[C@H](CCCNC(=N)N)NC(=O)[C@H](CCCNC(=N)N)NC(=O)CCC(=O)NCCOCCOCCCCCCCl)[C@@H](C)O)C(=O)N[C@H](C(=O)O)C(C)C [Compound 74] | 
0.79 ± 0.06 | CC(C)[C@H](NC(=O)[C@@H](NC(=O)[C@@H](NC(=O)[C@H](CCC(=O)O)NC(=O)[C@H](CCCCN)NC(=O)CCOCCOCCN(CCOCCOCCC(=O)N[C@@H](CCCCN)C(=O)N[C@@H](CCC(=O)O)C(=O)N[C@H](C(=O)N[C@H](C(=O)N[C@H](C(=O)O)C(C)C)C(C)C)[C@@H](C)O)C(=O)[C@H](CCCNC(=N)N)NC(=O)[C@H](CCCNC(=N)N)NC(=O)[C@H](CCCNC(=N)N)NC(=O)[C@H](CCCNC(=N)N)NC(=O)[C@H](CCCNC(=N)N)NC(=O)[C@H](CCCNC(=N)N)NC(=O)[C@H](CCCNC(=N)N)NC(=O)[C@H](CCCNC(=N)N)NC(=O)[C@H](CCCNC(=N)N)NC(=O)CCC(=O)NCCOCCOCCCCCCCl)[C@@H](C)O)C(C)C)C(=O)O [Compound 28] | 
17.9 ± 0.3 | CC[C@H](C)[C@H](NC(=O)CCOCCOCCN(CCOCCOCCC(=O)N[C@H](C(=O)N[C@@H](CCC(=O)O)C(=O)N[C@H](C(=O)N[C@@H](CC(=O)O)C(=O)N[C@H](C(=O)O)C(C)C)[C@@H](C)O)[C@@H](C)CC)C(=O)[C@H](Cc1ccccc1)NC(=O)[C@H](CCC(N)=O)NC(=O)CNC(=O)[C@H](CCCNC(=N)N)NC(=O)[C@H](CC(C)C)NC(=O)[C@H](CC(C)C)NC(=O)[C@H](CCCNC(=N)N)NC(=O)[C@H](CC(C)C)NC(=O)[C@H](Cc1ccc(O)cc1)NC(=O)[C@@H](NC(=O)[C@H](CC(C)C)NC(=O)[C@@H]1CCCN1C(=O)CCC(=O)NCCOCCOCCCCCCCl)[C@@H](C)CC)C(=O)N[C@@H](CCC(=O)O)C(=O)N[C@H](C(=O)N[C@@H](CC(=O)O)C(=O)N[C@H](C(=O)O)C(C)C)[C@@H](C)O [Compound 57] | 

The remaining lines, values behind:

Compound | CP50 [µM] | also measured
CC[C@H](C)[C@H](NC(=O)CCOCCOCCN(CCOCCOCCC(=O)N[C@H](C(=O)N[C@@H](CCC(=O)O)C(=O)N[C@H](C(=O)N[C@@H](CC(=O)O)C(=O)N[C@H](C(=O)O)C(C)C)[C@@H](C)O)[C@@H](C)CC)C(=O)[C@@H](CCCNC(=N)N)NC(=O)[C@@H](CCCNC(=N)N)NC(=O)[C@@H](CCCNC(=N)N)NC(=O)[C@@H](CCC(N)=O)NC(=O)[C@@H](CCCNC(=N)N)NC(=O)[C@@H](CCCNC(=N)N)NC(=O)[C@@H](CCCCN)NC(=O)[C@@H](CCCCN)NC(=O)[C@@H](CCCNC(=N)N)NC(=O)CNC(=O)[C@@H](Cc1ccc(O)cc1)NC(=O)CCC(=O)NCCOCCOCCCCCCCl)C(=O)N[C@@H](CCC(=O)O)C(=O)N[C@H](C(=O)N[C@@H](CC(=O)O)C(=O)N[C@H](C(=O)O)C(C)C)[C@@H](C)O [Compound 39] |  | CP50 (CA-tagged NPEG4-(IETDV)2 with various CPP-tags, 4 h at 37° C., mean ± SEM (Table 11, FIG. 8)): 10.7 ± 0.7 µM
CC(C)[C@H](NC(=O)[C@H](CCCNC(=N)N)NC(=O)[C@@H](NC(=O)[C@H](CCC(=O)O)NC(=O)[C@H](CCCCN)NC(=O)CCOCCOCCN(CCOCCOCCC(=O)N[C@@H](CCCCN)C(=O)N[C@@H](CCC(=O)O)C(=O)N[C@H](C(=O)N[C@@H](CCCNC(=N)N)C(=O)N[C@H](C(=O)O)C(C)C)[C@@H](C)O)C(=O)[C@H](CCCNC(=N)N)NC(=O)[C@H](CCCNC(=N)N)NC(=O)[C@H](CCCNC(=N)N)NC(=O)[C@H](CCCNC(=N)N)NC(=O)[C@H](CCCNC(=N)N)NC(=O)[C@H](CCCNC(=N)N)NC(=O)[C@H](CCCNC(=N)N)NC(=O)[C@H](CCCNC(=N)N)NC(=O)[C@H](CCCNC(=N)N)NC(=O)CCC(=O)NCCOCCOCCCCCCCl)[C@@H](C)O)C(=O)O [Compound 30] | 0.68 ± 0.05 | 
CC[C@H](C)[C@H](NC(=O)CCOCCOCCN(CCOCCOCCC(=O)N[C@H](C(=O)N[C@@H](CO)C(=O)N[C@H](C(=O)N[C@@H](CC(=O)O)C(=O)N[C@H](C(=O)O)C(C)C)[C@@H](C)O)[C@@H](C)CC)C(=O)[C@H](CCCNC(=N)N)NC(=O)[C@H](CCCNC(=N)N)NC(=O)[C@H](CCCNC(=N)N)NC(=O)[C@H](CCC(N)=O)NC(=O)[C@H](CCCNC(=N)N)NC(=O)[C@H](CCCNC(=N)N)NC(=O)[C@H](CCCCN)NC(=O)[C@H](CCCCN)NC(=O)[C@H](CCCNC(=N)N)NC(=O)CNC(=O)[C@H](Cc1ccc(O)cc1)NC(=O)CCC(=O)NCCOCCOCCCCCCCl)C(=O)N[C@@H](CO)C(=O)N[C@H](C(=O)N[C@@H](CC(=O)O)C(=O)N[C@H](C(=O)O)C(C)C)[C@@H](C)O [Compound 20] |  | CP50 [1]: 41.9 ± 1.6 µM
CC(C)[C@H](NC(=O)[C@H](CCCNC(=N)N)NC(=O)[C@@H](NC(=O)[C@H](CCC(=O)O)NC(=O)[C@H](CCCCN)NC(=O)CCOCCOCCN(CCOCCOCCC(=O)N[C@@H](CCCCN)C(=O)N[C@@H](CCC(=O)O)C(=O)N[C@H](C(=O)N[C@@H](CCCNC(=N)N)C(=O)N[C@H](C(=O)O)C(C)C)[C@@H](C)O)C(=O)[C@H](CCCNC(=N)N)NC(=O)[C@H](CCCNC(=N)N)NC(=O)[C@H](CCCNC(=N)N)NC(=O)[C@H](CCC(N)=O)NC(=O)[C@H](CCCNC(=N)N)NC(=O)[C@H](CCCNC(=N)N)NC(=O)[C@H](CCCCN)NC(=O)[C@H](CCCCN)NC(=O)[C@H](CCCNC(=N)N)NC(=O)CNC(=O)[C@H](Cc1ccc(O)cc1)NC(=O)CCC(=O)NCCOCCOCCCCCCCl)[C@@H](C)O)C(=O)O [Compound 18] |  | CP50 [1]: 47.7 ± 1.0 µM
CC[C@H](C)[C@H](NC(=O)CCOCCOCCN(CCOCCOCCC(=O)N[C@H](C(=O)N[C@@H](CCC(=O)O)C(=O)N[C@H](C(=O)N[C@@H](CC(=O)O)C(=O)N[C@H](C(=O)O)C(C)C)[C@@H](C)O)[C@@H](C)CC)C(=O)[C@H](CCCCNC(=O)CCC(=O)NCCOCCOCCCCCCCl)NC(=O)CCCNC(=O)CC[C@@H]1NC(=O)[C@@H](CCCNC(=N)N)NC(=O)[C@H](CCCNC(=N)N)NC(=O)[C@@H](CCCNC(=N)N)NC(=O)[C@H](CCCNC(=N)N)NC(=O)[C@H](Cc2ccc3ccccc3c2)NC(=O)[C@@H](Cc2ccccc2)NC(=O)[C@H](Cc2ccccc2)NC1=O)C(=O)N[C@@H](CCC(=O)O)C(=O)N[C@H](C(=O)N[C@@H](CC(=O)O)C(=O)N[C@H](C(=O)O)C(C)C)[C@@H](C)O [Compound 63] | 11.2 ± 0.7 | 
CC[C@H](C)[C@H](NC(=O)CCOCCOCCN(CCOCCOCCC(=O)N[C@H](C(=O)N[C@@H](CCC(=O)O)C(=O)N[C@H](C(=O)N[C@@H](CC(=O)O)C(=O)N[C@H](C(=O)O)C(C)C)[C@@H](C)O)[C@@H](C)CC)C(=O)[C@H](CCCNC(=N)N)NC(=O)[C@H](CCCNC(=N)N)NC(=O)[C@H](CCCNC(=N)N)NC(=O)CCC(=O)NCCOCCOCCCCCCCl)C(=O)N[C@@H](CCC(=O)O)C(=O)N[C@H](C(=O)N[C@@H](CC(=O)O)C(=O)N[C@H](C(=O)O)C(C)C)[C@@H](C)O [Compound 66] | 3.71 ± 0.30 | 
